Test results reported in patent US11352349B2, “Type II topoisomerase inhibitors and methods of making and using thereof” (Ohio State Innovation Foundation, priority 2017, dated 2022).
≈ marks a conversion by molar mass, not a printed value. Like-named read-outs stand apart in the source and are kept apart here.

How the values were obtained:
human topo II = biological target: T1, human topo II (Homo sapiens, UniProt P11388); test: Topoisomerase II (alpha) decatenation assay; assay type: biochemical; details: activity remaining at 100 μM compound; read-out: hTopoll (% activity remaining at 100 μM)
T1 construct: purchased Inspiralis, Norwich, UK
Method: (§1) A subset of analogs was used to assess the degree of inhibition of DNA gyrase or TopoIV (Inspiralis, Norwich, UK), both to establish the mechanism of action and to evaluate the relative balance of inhibitory activities (Table 1). A subset of compound was also assayed to determine the degree of inhibition of human topoisomerase II (Inspiralis, Norwich, UK)).
(§2) In all experiments, the activity of the enzymes was determined prior to the testing of the compounds and 1 unit (U) was defined as the amount of enzyme required to just fully supercoil, relax or decatenate the substrate (see explanation of gels). This amount of enzyme was initially used in determination of control inhibitor activity. These experiments were performed in duplicate.
(§3) For all assays the final DMSO concentration was 1%. 10 mM stocks of the compounds were serially diluted into 10% DMSO at 1 mM, 0.5 mM, 0.25 mM, 0.1 mM, 0.05 mM, 0.01 mM, 0.005 mM, 0.001 mM, 0.0005 mM, 0.0001 mM and 0.00005 mM. 3.0 μl of each dilution was added to a 30 μl assay.
(§4) Bands were visualised by ethidium staining for 20 minutes and destaining for 20 minutes. Gels were scanned using documentation equipment (GeneGenius, Syngene, Cambridge, UK) and % inhibition levels (where appropriate) were obtained with gel scanning software. (GeneTools, Syngene, Cambridge, UK)
Topoisomerase II (Alpha) Decatenation Assay
Each reaction was stopped by the addition of 30 μl chloroform/iso-amyl alcohol (26:1) and 30 μl Stop Dye, before being loaded on a 1.0% TAE gel run at 90V for 2 hours.

[1] = biological target: T2, Staphylococcus aureus Topo IV (Staphylococcus aureus, UniProt P0C1S7+P0C1U9); test: Staphylococcus aureus Topo IV decatenation assay; assay type: biochemical
T2 construct: purchased Inspiralis, Norwich, UK
Method: as §1, §2, §3, §4
Staphylococcus aureus Topo IV Decatenation Assay
1 U of Topo IV was incubated with 200 ng kDNA DNA in a 30 μl reaction at 37° C. for 30 minutes under the following conditions: 50 mM Tris.HCl (7.5), 5 mM MgCl2, 5 mM DTT, 1.5 mM ATP, 350 mM potassium glutamate and 0.05 mg/ml BSA.
Each reaction was stopped by the addition of 30 μl chloroform/iso-amyl alcohol (26:1) and 30 μl Stop Dye, before being loaded on a 1.0% TAE gel run at 70V for 2 hours.

S. aureus ATCC 29213 = test: MIC by broth microdilution (CLSI), quality control strain S. aureus ATCC 29213; assay type: cell-based, Staphylococcus aureus; details: multiple values when multiple MIC assays were conducted; for MIC: Staphylococcus aureus, ATCC29213, S. aureus ATCC 29213; for MIC 29213: S. aureus ATCC 29213
Method: Minimum inhibitory concentrations were determined using the quality control strain S. aureus ATCC 29213 (Table 1) by the broth microdilution method according to guidelines of the Clinical and Laboratory Standards Institute (CLSI) (Cockerill, F. R.; et al., 2012, Methods for dilution antimicrobial susceptibility tests for bacteria that grow aerobically; approved standard-ninth edition. MA07-A9. Clinical and Laboratory Standard Institute, Wayne, Pa.). […] Published quality control ranges for gepotidacin and ciprofloxacin were used to validate each assay. MICs for selected compounds were also determined using a USA 300 strain of MRSA (Hidron, et al., Lancet Infect. Dis. 2009, 9:384-392). Vancomycin was used as an additional control.

[2] = biological target: T3, Staphylococcus aureus gyrase (Staphylococcus aureus, UniProt P0A0K8+P20831); test: Staphylococcus aureus gyrase supercoiling assay; assay type: biochemical; details: S. aureus DNA gyrase supercoiling; read-out: Gyrase IC50
T3 construct: purchased Inspiralis, Norwich, UK
Method: as §1, §2, §3, §4
Staphylococcus aureus gyrase supercoiling
1 U of DNA gyrase was incubated with 0.5 μg of relaxed pBR322 DNA in a 30 μl reaction at 37° C. for 30 minutes under the following conditions: 40 mM HEPES. KOH (pH 7.6), 10 mM magnesium acetate, 10 mM DTT, 2 mM ATP, 500 mM potassium glutamate and 0.05 mg/ml BSA.
Each reaction was stopped by the addition of 30 μl chloroform/iso-amyl alcohol (26:1) and 30 μl Stop Dye (40% sucrose (w/v), 100 mM Tris.HCl (pH 7.5), 10 mM EDTA, 0.5 μg/ml bromophenol blue), before being loaded on a 1.0% TAE gel run at 70V for 2 hours.

USA 300 strain of MRSA = test: MIC by broth microdilution, USA 300 strain of MRSA; assay type: cell-based, Staphylococcus aureus; details: Staphylococcus aureus, multiple values when multiple MIC assays were conducted, read-out: MIC USA300
Method: Minimum inhibitory concentrations were determined using the quality control strain S. aureus ATCC 29213 (Table 1) by the broth microdilution method according to guidelines of the Clinical and Laboratory Standards Institute (CLSI) (Cockerill, F. R.; et al., 2012, Methods for dilution antimicrobial susceptibility tests for bacteria that grow aerobically; approved standard-ninth edition. MA07-A9. Clinical and Laboratory Standard Institute, Wayne, Pa.). […] MICs for selected compounds were also determined using a USA 300 strain of MRSA (Hidron, et al., Lancet Infect. Dis. 2009, 9:384-392). Vancomycin was used as an additional control.

[3] = S. aureus Topo IV decatenation, read-out: TopolV Decat IC50

T1 sequence (P11388 whole entry): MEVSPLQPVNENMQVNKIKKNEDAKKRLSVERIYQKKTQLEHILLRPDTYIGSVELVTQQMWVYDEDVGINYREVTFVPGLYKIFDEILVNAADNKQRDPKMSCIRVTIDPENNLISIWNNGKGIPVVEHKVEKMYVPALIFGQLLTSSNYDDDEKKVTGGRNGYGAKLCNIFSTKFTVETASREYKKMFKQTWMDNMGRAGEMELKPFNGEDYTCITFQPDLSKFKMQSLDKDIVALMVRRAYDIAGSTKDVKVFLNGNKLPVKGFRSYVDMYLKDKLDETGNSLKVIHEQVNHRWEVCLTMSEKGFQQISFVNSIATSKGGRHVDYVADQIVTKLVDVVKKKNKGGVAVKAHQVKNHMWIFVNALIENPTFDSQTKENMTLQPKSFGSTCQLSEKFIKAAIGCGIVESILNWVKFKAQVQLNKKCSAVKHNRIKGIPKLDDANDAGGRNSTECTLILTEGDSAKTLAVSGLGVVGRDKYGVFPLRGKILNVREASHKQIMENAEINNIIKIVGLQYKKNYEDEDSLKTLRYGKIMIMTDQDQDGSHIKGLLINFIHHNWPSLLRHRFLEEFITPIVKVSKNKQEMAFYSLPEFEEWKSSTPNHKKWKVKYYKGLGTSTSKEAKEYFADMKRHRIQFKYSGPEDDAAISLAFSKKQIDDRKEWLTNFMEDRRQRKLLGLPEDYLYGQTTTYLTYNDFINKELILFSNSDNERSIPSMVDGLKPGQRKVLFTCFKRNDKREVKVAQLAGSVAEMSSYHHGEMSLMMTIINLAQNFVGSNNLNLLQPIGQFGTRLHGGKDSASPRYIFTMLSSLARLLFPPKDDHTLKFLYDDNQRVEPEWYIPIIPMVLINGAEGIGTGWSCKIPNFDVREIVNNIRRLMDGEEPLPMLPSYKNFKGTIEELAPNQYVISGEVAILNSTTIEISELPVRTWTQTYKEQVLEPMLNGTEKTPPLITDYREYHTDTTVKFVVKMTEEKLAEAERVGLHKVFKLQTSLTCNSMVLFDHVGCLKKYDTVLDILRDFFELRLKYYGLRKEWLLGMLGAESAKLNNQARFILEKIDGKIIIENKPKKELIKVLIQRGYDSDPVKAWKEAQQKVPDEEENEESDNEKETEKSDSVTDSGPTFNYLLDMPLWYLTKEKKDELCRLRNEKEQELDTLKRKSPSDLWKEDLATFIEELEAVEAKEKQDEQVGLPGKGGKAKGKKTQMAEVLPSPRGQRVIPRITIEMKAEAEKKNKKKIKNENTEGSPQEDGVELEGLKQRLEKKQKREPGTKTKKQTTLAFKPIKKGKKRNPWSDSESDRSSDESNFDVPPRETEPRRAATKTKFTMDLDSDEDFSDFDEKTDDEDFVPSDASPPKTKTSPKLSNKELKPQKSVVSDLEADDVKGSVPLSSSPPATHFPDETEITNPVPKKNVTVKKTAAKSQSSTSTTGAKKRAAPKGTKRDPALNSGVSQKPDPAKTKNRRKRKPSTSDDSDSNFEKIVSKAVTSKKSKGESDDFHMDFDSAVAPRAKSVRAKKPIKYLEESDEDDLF

| Structure (SMILES) | MIC (S. aureus ATCC 29213) [µg/mL] | MIC (USA 300 strain of MRSA) [µg/mL] | remaining activity at 100 µM (human topo II) [%] | IC50 [1, 3] [nM] | IC50 [2] [nM] | MIC 29213 (S. aureus ATCC 29213) [µg/mL] | IC50 [1] [nM] |
| --- | --- | --- | --- | --- | --- | --- | --- |
| COc1ccc2ncc(=O)n(CC[C@H]3OC[C@H](NCc4ccc5c(c4)OCCO5)CO3)c2c1 [AB-0002, 1-(2-(5-(((2,3-dihydrobenzo[b][1,4]dioxin-6-yl)methyl)amino)-1,3-trans-dioxan-2-yl)ethyl)-7-methoxyquinoxalin-2(1H)-one] | 4 (≈ 8.82 µM) | – | 97.5 | > 100000 | 2010 | – | – |
| COc1ccc2nccc(/C=C/[C@H]3OC[C@H](NCc4ccc5c(c4)OCCO5)CO3)c2c1 [AB-0010, N-((2,3-dihydrobenzo[b][1,4]dioxin-6-yl)methyl)-2-((E)-2-(6-methoxyquinolin-4-yl)vinyl)-trans-1,3-dioxan-5-amine] | 1 (≈ 2.3 µM) | 1 (≈ 2.3 µM) | – | – | – | 2 (≈ 4.6 µM) | – |
| COc1ccc2nccc(CC[C@H]3OC[C@H](NCc4ccc5c(c4)OCCO5)CO3)c2c1 [AB-0011, N-((2,3-dihydrobenzo[b][1,4]dioxin-6-yl)methyl)-2-(2-(6-methoxyquinolin-4-yl)ethyl)-trans-1,3-dioxan-5-amine] | – | 0.5 (≈ 1.15 µM) | 84.2 | – | 100 | – | 13800 |
| COc1ccc2nccc(CC[C@H]3OC[C@H](NCc4ccc(Cl)c(Cl)c4)CO3)c2c1 [AB-0012, N-(3,4-dichlorobenzyl)-2-(2-(6-methoxyquinolin-4-yl)ethyl)-trans-1,3-dioxan-5-amine] | – | 0.5 (≈ 1.12 µM) | 93.2 | > 100000 | 280 | – | – |
| COc1ccc2nccc(CC[C@H]3OC[C@H](NCc4cc5c(cn4)OCCO5)CO3)c2c1 [AB-0013, N-((2,3-dihydro-[1,4]dioxino[2,3-c]pyridin-7-yl)methyl)-2-(2-(6-methoxyquinolin-4-yl)ethyl)-trans-1,3-dioxan-5-amine] | 1 (≈ 2.29 µM) | 2 (≈ 4.57 µM) | 95.1 | 50000 | 360 | 2 (≈ 4.57 µM) | – |
| COc1ccc2nccc(CC[C@H]3OC[C@H](NCc4cc5c(cn4)OCCC5)CO3)c2c1 [AB-0014, N-((3,4-dihydro-2H-pyrano[2,3-c]pyridin-6-yl)methyl)-2-(2-(6-methoxyquinolin-4-yl)ethyl)-trans-1,3-dioxan-5-amine] | 1 (≈ 2.3 µM) | 2 (≈ 4.59 µM) | 93.8 | 25000 to 50000 | 330 | – | – |
| COc1ccc2nccc(CC[C@H]3OC[C@H](NCc4ccc(F)c(Cl)c4)CO3)c2c1 [AB-0023, N-(3-chloro-4-fluorobenzyl)-2-(2-(6-methoxyquinolin-4-yl)ethyl)-trans-1,3-dioxan-5-amine] | 8 (≈ 18.6 µM) | – | 97.7 | > 100000 | 2100 | – | – |
| COc1ccc(CN[C@H]2CO[C@H](CCc3ccnc4ccc(OC)cc34)OC2)cc1 [AB-0031, N-(4-methoxybenzyl)-2-(2-(6-methoxyquinolin-4-yl)ethyl)-trans-1,3-dioxan-5-amine] | 4 (≈ 9.79 µM) | – | 98.7 | > 100000 | 1530 | – | – |
| COc1ccc2ncc(F)c(C(O)C[C@H]3OC[C@H](NCc4cc5c(cn4)OCCO5)CO3)c2c1 (stereo partly shown) [AB-0046] | 0.5 (≈ 1.06 µM) | 1 (≈ 2.12 µM) | 88.3 | – | 600 | – | – |
| COc1ccc2nccc(CC[C@H]3OC[C@H](NCc4ccc(C#N)cc4)CO3)c2c1 [AB-0047, 4-(((2-(2-(6-methoxyquinolin-4-yl)ethyl)-trans-1,3-dioxan-5-yl)amino)methyl)benzonitrile] | > 64 | – | 88.4 | > 100000 | 13300 | – | – |
| COc1ccc2ncc(=O)n(CC(O)[C@H]3OC[C@H](NCc4cc5c(cn4)OCCO5)CO3)c2c1 (stereo partly drawn) [AB-0077, 1-(2-(5-(((2,3-dihydro-[1,4]dioxino[2,3-c]pyridin-7-yl)methyl)amino)-trans-1,3-dioxan-2-yl)-2-hydroxyethyl)-7-methoxyquinoxalin-2(1H)-one] | 1 (≈ 2.13 µM) | 2 (≈ 4.25 µM) | – | – | – | – | – |
| COc1ccc2nccc(CC[C@H]3OC[C@H](NCc4ccc(OC(F)(F)F)cc4)CO3)c2c1 [AB-0081, 2-(2-(6-methoxyquinolin-4-yl)ethyl)-N-(4-(trifluoromethoxy)benzyl)-trans-1,3-dioxan-5-amine] | 2 (≈ 4.32 µM) | 4 (≈ 8.65 µM) | – | – | – | – | – |
| COc1ccc2nccc(CC[C@H]3OC[C@H](NCc4ccc(C(C)(C)C)cc4)CO3)c2c1 [AB-0082, N-(4-(tert-butyl)benzyl)-2-(2-(6-methoxyquinolin-4-yl)ethyl)-trans-1,3-dioxan-5-amine] | 2 (≈ 4.6 µM) | 4 (≈ 9.2 µM) | – | – | – | – | – |

Further lines, with some results ahead:

| MIC (S. aureus ATCC 29213) [µg/mL] | MIC (USA 300 strain of MRSA) [µg/mL] | Structure (SMILES) | remaining activity at 100 µM (human topo II) [%] | IC50 [1, 3] [nM] | IC50 [2] [nM] | MIC 29213 (S. aureus ATCC 29213) [µg/mL] | IC50 [1] [nM] |
| --- | --- | --- | --- | --- | --- | --- | --- |
| 0.25 (≈ 0.536 µM) | 0.125 (≈ 0.268 µM) | COc1ccc2ncc(F)c(CC[C@H]3OC[C@H](NCc4ccc(Cl)c(Cl)c4)CO3)c2n1 [AB-0017, N-(3,4-dichlorobenzyl)-2-(2-(3-fluoro-6-methoxy-1,5-naphthyridin-4-yl)ethyl)-trans-1,3-dioxan-5-amine] | – | – | – | – | – |
| ≤ 0.25 | 0.5 (≈ 1.04 µM) | COc1ccc2ncc(F)c(C(O)C[C@H]3OC[C@H](NCc4ccc(Cl)c(Cl)c4)CO3)c2c1 (stereo partly drawn) [AB-0019, 2-(5-((3,4-dichlorobenzyl)amino)-trans-1,3-dioxan-2-yl)-1-(3-fluoro-6-methoxyquinolin-4-yl)ethan-1-ol] | – | – | – | – | – |
| 1 (≈ 2.55 µM) | 1 (≈ 2.55 µM) | COc1ccc2nccc(CC[C@H]3OC[C@H](NCc4ccc(C)cc4)CO3)c2c1 [AB-0044] | – | – | – | – | – |
| 1 (≈ 2.24 µM) | 2 (≈ 4.48 µM) | COc1ccc2nccc(CC[C@H]3OC[C@H](NCc4ccc(C(F)(F)F)cc4)CO3)c2c1 [AB-0071, 2-(2-(6-methoxyquinolin-4-yl)ethyl)-N-(4-(trifluoromethyl)benzyl)-trans-1,3-dioxan-5-amine] | – | – | – | – | – |
| 2 (≈ 4.73 µM) | 4 (≈ 9.47 µM) | COc1ccc2nccc(CC[C@H]3OC[C@H](NCc4ccc5c(c4)OCO5)CO3)c2c1 [AB-0079, N-(benzo[d][1,3]dioxol-5-ylmethyl)-2-(2-(6-methoxyquinolin-4-yl)ethyl)-trans-1,3-dioxan-5-amine] | – | – | – | – | – |
| 1 (≈ 2.18 µM) | 2 (≈ 4.36 µM) | COc1ccc2nccc(CC[C@H]3OC[C@H](NCc4ccc5c(c4)OC(F)(F)O5)CO3)c2c1 [AB-0080, N-((2,2-difluorobenzo[d][1,3]dioxol-5-yl)methyl)-2-(2-(6-methoxyquinolin-4-yl)ethyl)-trans-1,3-dioxan-5-amine] | – | – | – | – | – |
| 0.5 (≈ 1.06 µM) | 1 (≈ 2.12 µM) | COc1ccc2ncc(F)c(C(O)C[C@H]3OC[C@H](NCc4cc5c(cn4)OCCO5)CO3)c2n1 (stereo partly drawn) [AB-0083, 2-(5-(((2,3-dihydro-[1,4]dioxino[2,3-c]pyridin-7-yl)methyl)amino)-trans-1,3-dioxan-2-yl)-1-(3-fluoro-6-methoxy-1,5-naphthyridin-4-yl)ethanol] | – | – | – | – | – |
| 2 (≈ 4.67 µM) | 4 (≈ 9.34 µM) | COc1ccc2nccc(CC[C@H]3OC[C@H](NCc4ccc(C(F)F)cc4)CO3)c2c1 [AB-0085, N-(4-(difluoromethyl)benzyl)-2-(2-(6-methoxyquinolin-4-yl)ethyl)-trans-1,3-dioxan-5-amine] | – | – | – | – | – |
